For orientation: Ki means a dissociation constant, usually derived from enzyme kinetics or from competition with a known ligand.

The values below come from PMC6136360, “Novel group of tyrosyl-DNA-phosphodiesterase 1 inhibitors based on disaccharide nucleosides as drug prototypes for anti-cancer therapy” (Journal of Enzyme Inhibition and Medicinal Chemistry, 2018).

Data set [1] is described as follows: Water solubility (qualitative). Format: physicochemical.
Data set [2] deals with T1, TDP1 (Homo sapiens, UniProt Q9NUW8).
T1 construct: made in house; host or cells: E. coli
T1 sequence (Q9NUW8 whole entry): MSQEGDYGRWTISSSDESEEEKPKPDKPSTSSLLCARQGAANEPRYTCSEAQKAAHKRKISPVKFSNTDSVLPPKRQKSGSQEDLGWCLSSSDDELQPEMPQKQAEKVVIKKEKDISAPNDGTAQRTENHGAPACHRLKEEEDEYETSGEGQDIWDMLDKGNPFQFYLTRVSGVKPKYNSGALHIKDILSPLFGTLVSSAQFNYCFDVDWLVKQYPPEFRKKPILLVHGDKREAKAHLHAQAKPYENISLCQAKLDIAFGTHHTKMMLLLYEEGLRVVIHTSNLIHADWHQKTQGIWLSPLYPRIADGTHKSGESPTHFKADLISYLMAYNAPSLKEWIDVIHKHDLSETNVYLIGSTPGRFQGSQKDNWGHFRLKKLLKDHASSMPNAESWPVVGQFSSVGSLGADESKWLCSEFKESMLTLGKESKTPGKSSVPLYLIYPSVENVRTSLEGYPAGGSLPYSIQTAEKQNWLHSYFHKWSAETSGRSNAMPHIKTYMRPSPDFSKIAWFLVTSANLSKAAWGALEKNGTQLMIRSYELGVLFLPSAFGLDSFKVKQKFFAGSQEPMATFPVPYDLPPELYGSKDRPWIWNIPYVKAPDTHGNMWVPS
Nature of the data set: Real-time fluorescence detection of TDP1 activity, single-stranded FAM/BHQ biosensor. Format: biochemical. The following applies: for Inhibitory effect on TDP1 activity (in words): single-stranded fluorescent biosensor, primary screening; for IC50: single-stranded fluorescent biosensor 50 nM, TDP1 1.5 nM, 26 °C, read-out: IC50 (half-maximal inhibitory concentration) of TDP1 activity. On the procedure: (§1) Conditions and details for our real-time detection of TDP1 activity using the single-stranded and hairpin fluorescent biosensors were reported in our previous work[47]. Briefly, the approach consists in fluorescence intensity measurement of the reaction of quencher removal from the fluorophore-quencher coupled DNA-oligonucleotide catalysed by TDP1 in the presence of inhibitor and in the absence of it (the control samples contained 1% DMSO). Reaction mixtures (200 µl) contained TDP1 buffer (50 mM Tris-HCl, pH 8.0, 50 mM NaCl, 7 mM β-mercaptoethanol), oligonucleotide (50 nM substrate of TDP1), testable inhibitor and purified TDP1 (1.5 nM). The reactions were incubated at a constant temperature of 26 °C in a POLARstar OPTIMA fluorimeter, BMG LABTECH, GmbH, to measure fluorescence every 55 s (Ex485/Em520 nm) during the linear phase (here data from 0 to 8 min). The average values of half maximal inhibitory concentration (IC50) were determined using an eleven-point concentration response curve in three independent experiments and calculated using MARS Data Analysis 2.0 (BMG LABTECH).
To discover inhibitors of TDP1 we recently developed original single-stranded and hairpin fluorophore–quencher coupled DNA-biosensors for real-time measurement of TDP1 cleavage activity. The single-stranded substrate is a 16-mer oligonucleotide containing both 5′-FAM fluorophore donor and a quenching 3′-BHQ moiety (Figure 1(A)). When the quencher is removed by TDP1, the fluorescence intensity increases and can be measured by fluorimeter (TDP1 catalysed reaction on biosensor is shown in Figure 3(A). Fluorescence intensity declines in the presence of inhibitor, the resulting curves of the dependence of TDP1 residual activity as a function of the concentration of inhibitors were obtained using 4-parameter logistic regression fit, which was used to calculate IC50 values[47]^,[58].
For primary screening, the effect of a large group of disaccharide nucleosides and their hydrophobic derivatives on human recombinant TDP1 activity has been evaluated by fluorescent method on a single-stranded substrate described above.

In data set [3] the target is T1, TDP1. As to the kind of experiment: Fluorescence anisotropy assay of TDP1-DNA substrate complex. Format: binding. To be noted: 3 nM single-strand oligonucleotide without quencher, 50 nM TDP1. On the procedure:
Fluorescence anisotropy was measured by using a fluorescent single-strand DNA-oligonucleotide (3 nM) without quencher at the 3′-end in the presence of the inhibitor in different concentrations (Fluorescein control, CFlu = 10^−9 M). Reaction mixtures (200 µl) contained TDP1 buffer (50 mM Tris-HCl, pH 8.0, 50 mM NaCl, 7 mM β-mercaptoethanol), a single-strand DNA-oligonucleotide without quencher (3 nM substrate of TDP1), a testable inhibitor and the purified TDP1 (50 nM). The reactions were incubated at a constant temperature of 26 °C in a POLARstar OPTIMA fluorimeter, BMG LABTECH, GmbH, to measure fluorescence anisotropy every 55 s (Ex482/Em530 nm) during the linear phase (from 0 to 8 min) in two independent experiments.
Fluorescence anisotropy (r) was calculated by using the Equation (1): (1) r = (III–I⊥)/(III+ 2I⊥)
The dependence of the anisotropy on the concentration of the inhibitor was determined using a six-point response curve in two independent experiments and calculated using MARS Data Analysis 2.0 (BMG LABTECH).
To obtain some information about interaction of disaccharide nucleosides with TDP1, anisotropy of the fluorescent DNA substrate was measured. We used single-stranded oligonucleotide without a quencher at the 3′-end in the presence of testable inhibitors at different concentrations.
Background: In fluorescence polarisation assays a small probe gives low polarisation when free and higher when bound to something large.

In data set [4] the target is T1, TDP1. Nature of the data set: Steady-state kinetic analysis of TDP1 reaction, single-stranded substrate. It counts as biochemical. The following applies: for Ki: Cornish-Bowden method, read-out: Inhibition constant, KI. On the procedure: (§2) To determine the kinetic parameters: apparent maximum rate of enzymatic reaction (Vmax), Michaelis constant (KM), constant of inhibition (KI), and possible inhibition mechanism, steady-state kinetic experiments were carried out at five fixed concentrations of substrate with variation of inhibitor concentrations. The standard reaction mixtures (200 μl) contained 50 nM, 100 nM, 200 nM, 500 nM or 1000 nM substrate, testable inhibitor, 1.5 nM recombinant human TDP1 and reaction buffer components (50 mM Tris-HCl, pH 8.0, 50 mM NaCl, 7 mM β-mercaptoethanol). After addition of the enzyme, the reaction mixtures were incubated at a constant temperature of 26 °C and measured in a POLARstar OPTIMA fluorimeter, BMG LABTECH, GmbH, to measure fluorescence every 55 s (Ex485/Em520 nm) during the linear phase (data from 0 to 8 min). The initial data (kinetic curves) were obtained in three independent experiments and statistically processed in software OriginPro 8.6.0.
Vmax and KM decrease proportionally (Figure 6(A,B)), which corresponds to the uncompetitive type of inhibition, according to the general equation of the rate of product formation in the Michaelis–Menten kinetics.
(§3) Values of the inhibition constant (KI) were determined using Cornish–Bowden method. Similar experiments were performed for all seven tested inhibitors on two types of DNA substrates, and the results are shown in Table 4.

The target in data set [5] is T2, SCAN1 (mutant form of TDP1 with H493R substitution) (Homo sapiens, UniProt Q9NUW8, H493R).
T2 construct: made in house; host or cells: E. coli
T2 sequence (Q9NUW8 whole entry H493R): as the sequence (Q9NUW8 whole entry) above, with H493R counted along it
As to the kind of experiment: Fluorescence real-time assay on mutant TDP1 (SCAN1), single-stranded oligonucleotide. It counts as biochemical.
Excerpt: The recombinant tyrosyl-DNA phosphodiesterase 1 and the mutant form of TDP1 with substitution (H493R) were expressed in the E. coli system (plasmids pET16B-TDP1 and pET16B-SCAN1 were provided by Dr. K.W. Caldecott, University of Sussex, United Kingdom and by Dr. S. El-Khamisy, University of Sheffield, United Kingdom) and purified according to the previously described technique.
as §1
The IC50 values obtained by the fluorescence real-time assay on a single-stranded oligonucleotide (section 3.1) were higher than 100 μM.

In data set [6] the test system is A-549 cell line (adenocarcinomic human alveolar basal epithelial cells). Nature of the data set: MTT test, cytotoxicity and combination with topotecan, A-549. Format: cell-based. To be noted: A-549 cells; for Synergistic coefficient (SC) with topotecan: MTT, inhibitor in combination with topotecan, SC < 1 indicates synergy; for Effect on cytotoxic effect of topotecan (in words): non-toxic inhibitor concentrations. The method, then:
Tumour cell line A549 (adenocarcinomic human alveolar basal epithelial cells) and noncancerous cell line WI-38 (fibroblasts derived from lung tissue of a 3 months gestation […] fetus) were used in cell-based experiments to determine the cytotoxicity of inhibitors and their effect on antitumour drug topotecan using standard MTT test[48]. Cells were incubated in Iscove’s Modified Dulbecco’s Medium (IMDM) supplemented with 10% fetal bovine serum and 40 µg/ml gentamicin, 10 U/ml penicillin, […], 0.25 µg/ml amphotericin at 37 °C and 5% CO2 for 24 h in a CO2 incubator; the optical density of the final solution was measured in the wells of the microplate at 570 nm and 620 nm wavelengths using a MultiScan FC (Thermo Scientific) microplate reader.
To study the effect of inhibitors on the cytotoxic effect of a well-known antitumour drug, the topotecan of the manufacturer “ACTAVIS GROUP PTC ehf.” was used. First of all, the 50% cytotoxic concentration (CC50) for topotecan and each inhibitor were determined to produce a defined single-agent effect. Second, three independent MTT-tests were performed with each inhibitor in combination with topotecan. Then, the synergistic coefficient (SC) was calculated according to the following formula (2)[49]: (2) SC= CC50 tpc,(+I)/CC50 tpc+CC50 I, (+tpc)/CC50 I,
CC50 tpc,(+I) and CC50 I,(+tpc) are the concentrations of topotecan and inhibitor used in combination to achieve 50% drug effect. CC50 tpc and CC50 I are the concentrations for single agents to achieve the same effect. SC values of less than, equal to, or more than 1 indicates synergy, additivity, and antagonism, respectively. The results were calculated and statistically processed in Microsoft Excel.
(Formazan colour is commonly taken as a measure of viable cells.)

The target of data set [7] is T1, TDP1. Nature of the data set: Steady-state kinetic analysis of TDP1 reaction, double-stranded (hairpin) substrate. Format: biochemical. To be noted: for Ki: Cornish-Bowden method, read-out: Inhibition constant, KI. On the procedure: as §2, §3

SMILES strings stand for the structures. Some results are limits rather than exact numbers.

For the compound `Nc1ncnc2c1ncn2[C@@H]1O[C@H](CO)[C@@H](O)[C@H]1O[C@@H]1O[C@H](COP(=O)([O-])[O-])[C@@H](O)[C@H]1O.[Na+].[Na+]` [Compound 3], in data set [1], the “Water solubility (in words)” value is “water-soluble”. In addition, the “Inhibitory effect on TDP1 activity (in words)” value in data set [2] is listed as “low inhibitory effect”.

Turning to `CC(C)[Si]1(C(C)C)OC[C@H]2O[C@@H](n3cnc4c(NC(=O)c5ccccc5)ncnc43)[C@H](O[C@@H]3O[C@H](COC(=O)c4ccccc4)[C@@H](OC(=O)c4ccccc4)[C@H]3OC(=O)c3ccccc3)[C@@H]2O[Si](C(C)C)(C(C)C)O1` [Compound 4], in data set [3], the “Change of fluorescence anisotropy with inhibitor concentration” value (from here on “Change … with inhibitor concentration”) is listed as “significant decrease in the anisotropy”. Moreover, in data set [4], the Type of inhibition entry is “Mixed” and the Ki was 0.3 ± 0.1 µM. This compound gave an IC50 in data set [5] of over 100 µM. Moreover, the IC50 in data set [2] was determined as 1.3 ± 0.2 µM. In data set [6], the “Synergistic coefficient (SC) with topotecan” value is recorded as “less than or equal to 0.7” and the “Effect on cytotoxic effect of topotecan (in words)” value (from here on “Effect on cytotoxic effect”) was “significant increase of cytotoxic effect of topotecan”. In data set [7], the Type of inhibition entry was “Mixed” and the Ki was found to be 0.2 ± 0.1 µM.

With `Cc1cn([C@@H]2O[C@H](COP(=O)([O-])[O-])[C@@H](O)[C@H]2O[C@@H]2O[C@H](CO)[C@@H](O)[C@H]2O)c(=O)[nH]c1=O.[Na+].[Na+]` [Compound 6], the “Change … with inhibitor concentration” value in data set [3] is “anisotropy remained unchanged”. In addition, the Type of inhibition result in data set [4] and in data set [7] was “Noncompetitive” each time. Further, the Ki worked out at 7.9 ± 0.8 µM in data set [4] and 8.8 ± 0.9 µM in data set [7]. For the same compound, the “Water solubility (in words)” value in data set [1] is “high water solubility”. The IC50 in data set [5] is over 100 µM; in data set [2], 18.5 ± 0.8 µM. Moreover, in data set [6], the “Effect on cytotoxic effect” value was “significant increase of cytotoxic effect of topotecan”.

For `Cc1cn([C@@H]2O[C@@H]3CO[Si](C(C)C)(C(C)C)O[Si](C(C)C)(C(C)C)O[C@H]3[C@H]2O[C@@H]2O[C@H](COC(=O)c3ccccc3)[C@@H](OC(=O)c3ccccc3)[C@H]2OC(=O)c2ccccc2)c(=O)[nH]c1=O` [Compound 7], the “Change … with inhibitor concentration” value in data set [3] is “significant decrease in the anisotropy”. In data set [4], the Type of inhibition result is “Mixed” and the Ki is 0.9 ± 0.3 µM. The compound further came in with an IC50 in data set [5] of over 100 µM. In data set [6], the “Synergistic coefficient (SC) with topotecan” value is recorded as “less than or equal to 0.7” and the “Effect on cytotoxic effect” value was “significant increase of cytotoxic effect of topotecan”. Moreover, in data set [7], the Type of inhibition entry is listed as “Mixed” and the Ki stood at 0.3 ± 0.1 µM.

For the compound `Nc1nc2c(ncn2[C@@H]2O[C@H](CO)[C@@H](O)[C@H]2O[C@@H]2O[C@H](COP(=O)([O-])[O-])[C@@H](O)[C@H]2O)c(=O)[nH]1.[Na+].[Na+]` [Compound 9], the “Water solubility (in words)” value in data set [1] is recorded as “water-soluble”. The “Inhibitory effect on TDP1 activity (in words)” value in data set [2] was “not active at all”.

Take `CC(C)C(=O)Nc1nc2c(ncn2[C@@H]2O[C@@H]3CO[Si](C(C)C)(C(C)C)O[Si](C(C)C)(C(C)C)O[C@H]3[C@H]2O[C@@H]2O[C@H](COC(=O)c3ccccc3)[C@@H](OC(=O)c3ccccc3)[C@H]2OC(=O)c2ccccc2)c(=O)[nH]1` [Compound 11]: the “Change … with inhibitor concentration” value in data set [3] is listed as “significant decrease in the anisotropy”. Moreover, in data set [4], the Type of inhibition result was “Mixed” and the Ki worked out at 0.2 ± 0.1 µM. The compound further registered an IC50 in data set [5] of over 100 µM. Moreover, the “Effect on cytotoxic effect” value in data set [6] was “significant increase of cytotoxic effect of topotecan”. Besides, in data set [7], the Type of inhibition entry is “Mixed” and the Ki worked out at 0.3 ± 0.2 µM.
